The values that follow are results of earlier work, collected in article PMC2817966 (Journal of chemical information and modeling, 2009).

pIC50: −log10 of the molar value.

As usually defined, the pIC50 is the negative decadic logarithm of the IC50, by convention in mol/L. `Cc1cc(C)cc(Oc2c(CSCc3ccco3)c(C)[nH]c(=O)c2I)c1` [Compound R221239]: the pIC50 with Tyr181Cys variant (read-out: IC50 against Tyr181Cys variant) was 8.30; with WT HIV-1 (read-out: IC50 against WT HIV), 8.70.
Consider `CC(Sc1nc(N)cc(Cl)n1)c1cc2ccoc2cn1` (single isomer, unassigned; (-)) [PNU142721, (-)-6-Chloro-2-[(1-furo[2,3-c]pyridin-5-ylethyl)thio]-4-pyrimidinamine], for which, in the data set with Tyr181Cys variant, the “activity towards a Y181C variant” value was 1 µM. Besides, in the data set with WT HIV-1, the “potency towards WT HIV-1” value is listed as 1 nM.
